Literature values as cited in patent US20210000933A1, “TUMOR VACCINE” (CELL-MEDICINE, INC., priority 2019, published 2021).
Where two headings read alike, the source gives them in different places.

Experiments:
[1] = system: brain tumor
[2] = system: newly diagnosed glioblastoma; settings: bevacizumab used together with the standard therapy
[3] = 22 brain tumor cases, PDT then standard therapy
[4] = newly diagnosed glioblastoma cases (13 cases)

Row | Compound | Side reactions ([1]; 22 brain tumor cases) | 6-month progression-free survival rate [1, 3] [%] | 12-month postoperative overall survival rate [1, 3] [%] | mOS ([1]; glioblastoma cases) [months] | mPFS ([1]; glioblastoma cases) [months] | 6-month progression-free survival rate [1, 4] [%] | 12-month postoperative overall survival rate [1, 4] [%] | mOS [2] [months] | mPFS [2] [months]
1 | C=Cc1c(C)c2cc3nc(c(CC(=O)N[C@@H](CC(=O)O)C(=O)O)c4[nH]c(cc5nc(cc1[nH]2)C(C)=C5CC)c(C)c4C(=O)O)[C@@H](CCC(=O)O)[C@@H]3C [talaporphin sodium, talaporfin sodium] | observed for only four cases, and all of them were mild | 91 | 95.5 | 24.8 | 12.0 | 100 | 100 |  | 
2 | bevacizumab: antibody drug having a tumor neovascularization inhibitory effect |  |  |  |  |  |  |  | 15.7 to 16.8 | 10.6 to 10.7
